Test results as given in patent US20020045780A1, “Biologically active spermidine analogues, pharmaceutical compositions and methods of treatment” (priority 1997, published 2002).
Where a name gives a salt, the structure may show the parent alone. Read-outs that look alike come from different tables or passages of the source. Blank lines part the entries; values can stand above or below the compound they belong to.

Columns and labels:
[1] = tested on: mice; test: Acute toxicity in mice (single i.p. dose); type: in vivo
Protocol: (§1) In the current study, the acute toxicity of six analogues and the chronic toxicity of two triamines were measured (Table 7). The value of all polyamine LD50s are shown in both mg/kg and mmol/kg for comparison. […] The animals were scored two hours after administration of the drug. It is clear that the acute LD50s for triamine analogues are approximately twice the acute LD50s for the corresponding tetraamine analogues.
(§2) Acute and chronic toxicities were assessed in 10-12 week old CD-1 female mice from Harlan Sprague-Dawley. For acute toxicities, the polyamine analogues were administered in a single i.p. injection to groups of five or six animals at each dose. The animals were scored two hours after administration of the dose. All survivors were further observed for 10 days to assess late onset of toxicity from the single acute dose. In the chronic toxicity regimen, mice were administered polyamine analogue in three i.p. doses per day (t.i.d.) for six days, for a total of eighteen doses per animal. Appetite, weight and overall appearance were monitored daily. […] At least three test groups of 5-6 animals each, representing three different dose levels, were evaluated for each analogue tested. These dose levels were chosen so that at least two groups presented with lethalities, one with a high fraction of lethalities (>0.50, but <1.00).

[2] = Acute toxicity in mice (single i.p. dose); type: in vivo; details: female, CD-1, mouse, in vivo, ip
Protocol: as §1, §2

[3] = tested on: mice; details: cited from earlier work
[4] = tested on: ornithine decarboxylase (ODC); details: cited from earlier work; for ODC activity, corresponding tetraamine (in parentheses): L1210, 1 μM at 4 hours
[5] = molecular target: polyamine transport apparatus; details: cited from earlier work; for Ki: inhibition of spermidine transport, L1210, read-out: Ki, corresponding tetraamine (in parentheses)
[6] = tested on: L1210 cells; details: cited from earlier work
[7] = tested on: spermidine/spermine acetyltransferase (SSAT); details: L1210, 2 μM at 48 hours (tetraamine analogues); cited from earlier work
[8] = tested on: L1210 cells; details: 48 hours, cited from earlier work; for Put, corresponding tetraamine (in parentheses) / Spd, corresponding tetraamine (in parentheses) / Spm, corresponding tetraamine (in parentheses): % of untreated control; for Analogue, corresponding tetraamine (in parentheses): intracellular amount
[9] = tested on: S-adenosylmethionine decarboxylase (AdoMetDC); details: cited from earlier work; for AdoMetDC activity, corresponding tetraamine (in parentheses): L1210, 1 μM at 6 hours
[10] = tested on: SSAT; details: MALME-3 cells; cited from earlier work
[11] = tested on: L1210 cells; test: Metabolic transformation of polyamine analogues by L1210 cells; type: in vitro ADME, murine
Protocol: The cells were washed twice with cold RPMI-1640, and the pellet was treated with 0.6 N HClO4 (1 ml/10^7 cells). Polyamine contents of the perchloric acid extracts were quantitated by HPLC of the DANSYL derivatives [Bergeron et al, J. Med. Chem., Vol. 37, supra].

[12] = mice, single dose i.p., scored two hours after dose, read-out: Acute LD50
[13] = L1210, 48 hour exposure, read-out: IC50 48 hour, corresponding tetraamine (in parentheses)
[14] = L1210, 96 hour exposure, read-out: IC50 96 hour, corresponding tetraamine (in parentheses)
[15] = female, CD-1, mouse, in vivo, 600 mg/kg

SMILES: CCNCCCCNCCCCCNCCCCNCC [DE(4,5,4)]
Acute LD50 ([1]; mice, single dose i.p., scored two hours after dose, hydrochloride salts): 285 mg/kg | LD50 at 2 h [2, 12]: 638 µmol/kg | Chronic LD50 (tetraamines) ([3]; mice, i.p. t.i.d. × 6 days): 0.104 mmol/kg/day | Chronic LD50 (tetraamines) ([3]; mouse, in vivo, ip): 48 mg/kg-day | ODC activity, corresponding tetraamine (in parentheses) [4]: 20% of untreated control | Ki [5]: 6 µM | IC50 [6, 13]: 0.3 µM | IC50 [6, 14]: 0.035 µM | SSAT activity, corresponding tetraamine (in parentheses) [7]: 120 (120) percent of untreated control | Put, corresponding tetraamine (in parentheses) ([8]; 0.3 μM): (44) % | Spd, corresponding tetraamine (in parentheses) ([8]; 0.3 μM): (61) % | Spm, corresponding tetraamine (in parentheses) ([8]; 0.3 μM): (70) % | Analogue, corresponding tetraamine (in parentheses) ([8]; 0.3 μM): (0.26) nmol/10^6 cells

SMILES: CCNCCCCCNCCCCNCCCCCNCC.Cl.Cl.Cl.Cl [DE(5,4,5), 3,9,14,20-Tetraazadocosane Tetrahydrochloride]
LD50 at 2 h ([2]; mice, single dose i.p., scored two hours after dose, hydrochloride salts, read-out: Acute LD50): 195 mg/kg | LD50 at 2 h [2, 12]: 424 µmol/kg | Chronic LD50 (tetraamines) ([3]; mice, i.p. t.i.d. × 6 days, hydrochloride salts): 36 mg/kg-day | Chronic LD50 (tetraamines) ([3]; mice, i.p. t.i.d. × 6 days): 0.078 mmol/kg/day | ODC activity, corresponding tetraamine (in parentheses) [4]: 19% of untreated control | AdoMetDC activity, corresponding tetraamine (in parentheses) [9]: 54% of untreated control | Ki [5]: 16 µM | IC50 [6, 13]: 0.4 µM | IC50 [6, 14]: 0.03 µM | SSAT activity, corresponding tetraamine (in parentheses) [7]: 190% of untreated control | Put, corresponding tetraamine (in parentheses) ([8]; 0.75 μM): (0) % | Spd, corresponding tetraamine (in parentheses) ([8]; 0.75 μM): (10) % | Spm, corresponding tetraamine (in parentheses) ([8]; 0.75 μM): (58) % | Analogue, corresponding tetraamine (in parentheses) ([8]; 0.75 μM): (1.48) nmol/10^6 cells

SMILES: CCNCCCNCCCCNCCCNCC [DESPM, N^1,N^12-diethylspermine]
Animals died within seven days [1, 15]: 5/5 | Death within the initial 2 hours [1, 15]: no death | LD50 at 2 h [2]: 842 µmol/kg | SSAT up-regulation [10]: 250 fold | Time at which reduction in ODC activity plateaued ([4]; previous studies): 4 h | AdoMetDC activity, corresponding tetraamine (in parentheses) [9]: 28% of untreated control | Time at which reduction in AdoMetDC activity plateaued ([9]; previous studies): 6 h | Ki [5]: 1.6 µM | IC50 [6, 13]: 30 µM | IC50 [6, 14]: 0.18 µM | SSAT activity, corresponding tetraamine (in parentheses) [7]: 460% of untreated control

SMILES: CCCNCCCNCCCNCCCNCCC [DPNSPM, N^1,N^11-Dipropylnorspermine Tetrahydrochloride]
ODC activity, corresponding tetraamine (in parentheses) [4]: 79% of untreated control | AdoMetDC activity, corresponding tetraamine (in parentheses) [9]: 70% of untreated control | Parent drug as % of total drug in the cell ([11]; 48 hours, 100 μM analogue): 78.2% | Parent drug in L1210 cells ([11]; 48 hours, 100 μM analogue): 893 pmols/10^6 | Ki [5]: 11 µM | IC50 [6, 13]: > 100 µM | IC50 [6, 14]: 18 µM | SSAT activity, corresponding tetraamine (in parentheses) [7]: 460% of untreated control | Put, corresponding tetraamine (in parentheses) ([8]; 100 μM): (61) % | Spd, corresponding tetraamine (in parentheses) ([8]; 100 μM): (35) % | Spm, corresponding tetraamine (in parentheses) ([8]; 100 μM): (77) % | Put, corresponding tetraamine (in parentheses) ([8]; 500 μM): (0) % | Spd, corresponding tetraamine (in parentheses) ([8]; 500 μM): (19) % | Spm, corresponding tetraamine (in parentheses) ([8]; 500 μM): (56) % | Analogue, corresponding tetraamine (in parentheses) ([8]; 100 μM): (0.89) nmol/10^6 cells | Analogue, corresponding tetraamine (in parentheses) ([8]; 500 μM): (1.28) nmol/10^6 cells

Continued, in another order:

N-Monodealkylation (result in words) ([11]; 48 hours, 100 μM analogue): no N-deethylation | Parent drug as % of total drug in the cell ([11]; 48 hours, 100 μM analogue): 100% | Parent drug in L1210 cells ([11]; 48 hours, 100 μM analogue): 4215 pmols/10^6
SMILES: CCNCCCCNCCCCNCCCCNCC [DEHSPM, N^1,N^14-diethylhomospermine]
SSAT up-regulation [10]: 30 fold | ODC activity, corresponding tetraamine (in parentheses) [4]: 7% of untreated control | Ki [5]: 1.4 µM | IC50 [6, 13]: 0.2 µM | IC50 [6, 14]: 0.07 µM | SSAT activity, corresponding tetraamine (in parentheses) [7]: 110% of untreated control | Put, corresponding tetraamine (in parentheses) ([8]; 10 μM): (0) % | Spd, corresponding tetraamine (in parentheses) ([8]; 10 μM): (0) % | Spm, corresponding tetraamine (in parentheses) ([8]; 10 μM): (61) % | Analogue, corresponding tetraamine (in parentheses) ([8]; 10 μM): (2.94) nmol/10^6 cells

Parent drug as % of total drug in the cell ([11]; 48 hours, 500 μM analogue): 95.3% | Parent drug in L1210 cells ([11]; 48 hours, 500 μM analogue): 2440 pmols/10^6
SMILES: CCNCCCNCCCNCCCNCC [DENSPM, N^1,N^11-diethylnorspermine]
SSAT up-regulation [10]: 1200 fold | AdoMetDC activity, corresponding tetraamine (in parentheses) [9]: 42% of untreated control | Ki [5]: 17 µM | Ki relative to those of DESPM and DEHSPM ([5]; polyamine transport system): over 10 times | IC50 [6, 13]: > 100 µM | IC50 [6, 14]: 2 µM | SSAT activity, corresponding tetraamine (in parentheses) [7]: 1500% of untreated control | Put, corresponding tetraamine (in parentheses) ([8]; 10 μM): (30) % | Spd, corresponding tetraamine (in parentheses) ([8]; 10 μM): (14) % | Spm, corresponding tetraamine (in parentheses) ([8]; 10 μM): (31) % | Analogue, corresponding tetraamine (in parentheses) ([8]; 10 μM): (1.59) nmol/10^6 cells | Analogue, corresponding tetraamine (in parentheses) ([8]; 100 μM): (2.44) nmol/10^6 cells

N-dealkylation (result in words) ([11]; L1210 cells, data not shown, concentration not given): no evidence of N-dealkylation
SMILES: CNCCCCNCCCCNCCCCNC [DMHSPM]
ODC activity, corresponding tetraamine (in parentheses) [4]: 4% of untreated control | AdoMetDC activity, corresponding tetraamine (in parentheses) [9]: 45% of untreated control | Ki [5]: 0.97 µM | IC50 [6, 13]: > 100 µM | IC50 [6, 14]: 0.32 µM | SSAT activity, corresponding tetraamine (in parentheses) [7]: 140% of untreated control | Put, corresponding tetraamine (in parentheses) ([8]; 100 μM): (0) % | Spd, corresponding tetraamine (in parentheses) ([8]; 100 μM): (0) % | Spm, corresponding tetraamine (in parentheses) ([8]; 100 μM): (30) % | Put, corresponding tetraamine (in parentheses) ([8]; 500 μM): (0) % | Spd, corresponding tetraamine (in parentheses) ([8]; 500 μM): (0) % | Spm, corresponding tetraamine (in parentheses) ([8]; 500 μM): (27) % | Analogue, corresponding tetraamine (in parentheses) ([8]; 100 μM): (1.49) nmol/10^6 cells | Analogue, corresponding tetraamine (in parentheses) ([8]; 500 μM): (1.03) nmol/10^6 cells

Parent drug as % of total drug in the cell ([11]; 48 hours, 15 μM analogue): 79.0% | Parent drug in L1210 cells ([11]; 48 hours, 15 μM analogue): 1568 pmols/10^6
SMILES: CCCNCCCNCCCCNCCCNCCC [DPSPM]
ODC activity, corresponding tetraamine (in parentheses) [4]: 52% of untreated control | AdoMetDC activity, corresponding tetraamine (in parentheses) [9]: 72% of untreated control | Ki [5]: 2.3 µM | IC50 [6, 13]: 3 µM | IC50 [6, 14]: 0.2 µM | SSAT activity, corresponding tetraamine (in parentheses) [7]: 500% of untreated control | Put, corresponding tetraamine (in parentheses) ([8]; 15 μM): (0) % | Analogue, corresponding tetraamine (in parentheses) ([8]; 3 μM): (1.12) nmol/10^6 cells | Analogue, corresponding tetraamine (in parentheses) ([8]; 15 μM): (1.09) nmol/10^6 cells
